Experiments:
[1] = Dynamic PET scans of brain, baseline, homologous block and pretargeted; type: in vivo, rat; settings: rats
Procedure: Dynamic PET scans were performed with arterial sampling to determine parent fraction of the tracer ^18F-537-Tz in baseline and pretargeted scans. Baseline imaging with a comparison to a homologous block with non-radioactive compound ^19F-537-Tz at 1 mg/kg was performed on a single rat, where non-radioactive compound was administered i.v. 5 min before injection of tracer. Next, three additional rats were imaged at baseline with no ASO-TCO administered. A final three rats received pretargeted scans and were dosed intrathecally with 0.56 mg Malat1 ASO-TCO in 30 μL saline followed by a 40 μL saline flush. 24 h after injection of the ASO, ^18F-537-Tz was injected intravenously and dynamic PET imaging performed.
Time-activity-curves (TAC) from 0 to 60 min showing the brain subregion distribution of ^18F-537-Tz in rat 2 at baseline and following iv administration of 1 mg/kg of unlabeled […] are illustrated in FIG. 9. […] The average brain regional SUV from 40-60 min of the scans were similar in the baseline and homologous block scans (Table 1).
PET/CT images with summed radioactivity from 0 to 60 min showing the brain distribution of ^18F-537-Tz in the 4 rats scanned at baseline and the 3 rats scanned 24 h after i.t. administration of ASO-TCO are illustrated in FIG. 10. There was an increase in brain uptake of radioactivity observed in all the ASO-TCO dosed rats. There was an increase of ca. […]

[2] = Brain protein binding (BPB); type: in vitro ADME
Description: (§1) As pretargeting is a 2-component system, an ^18F-Tz was developed to be CNS-penetrant based on cnsPET-MPO modeling (Zhang, L., et al. (2018). J Med Chem 61(8): 3296-3308).

[3] = Static PET/CT of spine in NHP, spinal cord ROI with muscle as reference; type: in vivo; settings: cynomolgus monkey, 24 h post-ASO scan
Procedure: Dynamic PET scans (0-120 min) with arterial input function were performed on a female cynomolgous monkey using ^18F-537-Tz (5.7±0.7 mCi, 0.14±0.12 μg) in order to evaluate the tracer's efficacy in non-human primates. Parent fraction of tracer in arterial plasma was determined by extracting tracer using acetonitrile and analysis by radioHPLC. Baseline scans were performed first, measuring tracer kinetics in the brain. Malat1 ASO-TCO (20 mg in 2.4 mL aCSF) was then injected intrathecally under fluoroscopic guidance and ^18F-537-Tz PET/CT imaging performed at 24 h and 168 h under isoflurane anesthesia. Imaging data were co-registered to a cyno brain atlas, and TAC in subregions of interest were derived from them. Static PET/CT scans were acquired in each imaging session, with the field of view (FOV) oriented to capture the spine. This scan took place 130-160 min p.i. of tracer, and an ROI drawn over the spinal cord with muscle as a reference region.

BCRP = target: T1, BCRP (Homo sapiens, UniProt Q9UNQ0); experiment: in vitro; type: in vitro ADME; settings: dog
T1 construct: expressed in transfected cells; host or cells: MDCK (canine kidney) cells expressing BCRP
T1 sequence (Q9UNQ0 1-655): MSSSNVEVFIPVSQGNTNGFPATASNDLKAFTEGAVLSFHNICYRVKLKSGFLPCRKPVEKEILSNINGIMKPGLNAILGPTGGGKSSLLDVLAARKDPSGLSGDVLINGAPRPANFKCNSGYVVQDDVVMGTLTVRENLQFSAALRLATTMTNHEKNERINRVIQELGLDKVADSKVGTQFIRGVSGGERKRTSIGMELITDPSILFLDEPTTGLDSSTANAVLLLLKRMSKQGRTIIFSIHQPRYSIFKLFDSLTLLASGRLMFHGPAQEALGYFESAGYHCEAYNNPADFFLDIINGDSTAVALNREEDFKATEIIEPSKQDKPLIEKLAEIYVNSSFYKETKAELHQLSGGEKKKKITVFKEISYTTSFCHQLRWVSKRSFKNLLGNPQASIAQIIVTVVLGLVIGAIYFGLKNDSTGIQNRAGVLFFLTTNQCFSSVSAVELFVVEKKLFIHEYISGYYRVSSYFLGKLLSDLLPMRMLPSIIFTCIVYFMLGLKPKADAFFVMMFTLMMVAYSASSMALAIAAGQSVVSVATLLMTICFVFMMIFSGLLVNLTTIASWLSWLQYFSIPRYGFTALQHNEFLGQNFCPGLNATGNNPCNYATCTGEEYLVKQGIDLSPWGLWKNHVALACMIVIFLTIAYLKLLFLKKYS
Description: as §1

[4] = Baseline group, 40-60 min p.i. of tracer
[5] = Pretargeted group (0.56 mg Malat1 ASO-TCO i.t. 24 h before tracer), 40-60 min p.i.
[6] = Pretargeted group (Malat1 ASO-TCO i.t. 24 h before tracer), 40-60 min p.i.
[7] = Pretargeted vs Baseline, 40-60 min p.i.

O=C(Cc1ccc(-c2nncnn2)cc1)NCC[18F] [Compound 1]
SUV Whole Brain ([1]; Baseline group (no ASO-TCO), 40-60 min p.i. of tracer): 1.45
SUV normalized to plasma, Cerebellum [1, 4]: 1.27
SUV normalized to plasma, Cortex [1, 4]: 1.05
SUV normalized to plasma, Frontal Cortex [1, 4]: 1.11
SUV normalized to plasma, Hippocampus [1, 4]: 1.2
SUV normalized to plasma, Hypothalamus [1, 4]: 1.36
SUV normalized to plasma, Striatum [1, 4]: 1.27
SUV normalized to plasma, Thalamus [1, 4]: 1.37
SUV normalized to plasma, Whole Brain [1, 4]: 1.21
SUV Cerebellum [1, 5]: 1.9
SUV Cortex [1, 5]: 1.66
SUV Frontal Cortex [1, 5]: 1.66
SUV Hippocampus [1, 5]: 1.85
SUV Hypothalamus [1, 5]: 1.89
SUV Plasma [1, 5]: 1.18
SUV Striatum [1, 5]: 1.77
SUV Thalamus [1, 5]: 1.95
SUV Whole Brain [1, 5]: 1.79
SUV normalized to plasma, Cerebellum [1, 6]: 1.67
SUV normalized to plasma, Cortex [1, 6]: 1.42
SUV normalized to plasma, Frontal Cortex [1, 6]: 1.43
SUV normalized to plasma, Hippocampus [1, 6]: 1.61
SUV normalized to plasma, Hypothalamus [1, 6]: 1.63
SUV normalized to plasma, Striatum [1, 6]: 1.47
SUV normalized to plasma, Thalamus [1, 6]: 1.61
SUV normalized to plasma, Whole Brain [1, 6]: 1.53
% Change of SUV normalized to plasma, Cerebellum ([1]; Pretargeted vs Baseline): 31%
% Change of SUV normalized to plasma, Cortex ([1]; Pretargeted vs Baseline): 35%
% Change of SUV normalized to plasma, Frontal Cortex ([1]; Pretargeted vs Baseline): 29%
% Change of SUV normalized to plasma, Hippocampus ([1]; Pretargeted vs Baseline): 34%
% Change of SUV normalized to plasma, Hypothalamus ([1]; Pretargeted vs Baseline): 20%
% Change of SUV normalized to plasma, Striatum ([1]; Pretargeted vs Baseline): 16%
% Change of SUV normalized to plasma, Thalamus ([1]; Pretargeted vs Baseline): 18%
% Change of SUV normalized to plasma, Whole Brain ([1]; Pretargeted vs Baseline): 26%
% Change of SUV Cerebellum [1, 7]: 25%
% Change of SUV Cortex [1, 7]: 33%
% Change of SUV Frontal Cortex [1, 7]: 25%
% Change of SUV Hippocampus [1, 7]: 29%
% Change of SUV Hypothalamus [1, 7]: 17%
% Change of SUV Striatum [1, 7]: 16%
% Change of SUV Thalamus [1, 7]: 19%
% Change of SUV Whole Brain [1, 7]: 23%
brain entry of tracer ([1]; highest uptake in thalamus/hypothalamus, lowest in cortical regions): readily entered the brain
BPB (rat) unbound [2]: 51%
spinal cord SUV normalized to muscle, higher signal than baseline scan [3]: ~25%
efflux ratio (BCRP): 0.51

Source: US20220290140A1, “TRANS-CYCLOOCTENE LABELED ANTISENSE OLIGONUCLEOTIDES, RADIO LABELED TETRAZINE AND METHODS” (Biogen MA Inc., priority 2019, published 2022)
